Assay results reported in patent US6436630B1, “Method for testing the toxicity of chemical substances using gastropods” (priority 1998, dated 2002).
Structures can show the parent of a compound that is named as a salt.

Columns and labels:
[1] = tested on: foot mucosa of slugs of the species Arion; experiment: Slug mucosal toxicity test of local anaesthetics, Example 4; type: in vivo
Experimental: The following local anaesthetics were used as test substance: procaine HCl, lidocaine HCl, prilocaine HCl, tetracaine HCl and bupivacaine HCl. All test substances were prepared in PBS (pH 7.4) at 1% w/v concentrations. The slugs were daily incubate during 15 min with the test solution during five days. After the incubation period the slugs were placed on 1 ml PBS in a petri dish. The PBS was sampled every hour and refreshed with 1 ml PBS for 3 hours after the treatment.
The total protein released into the PBS was determined.

[2] = tested on: foot mucosa of slugs of species Arion; experiment: Slug mucosal toxicity test, Example 2 (15 min daily treatment, four days); settings: in vivo; for % MP, mucus production as % of the body weight at the start of the day before the treatment / ALP released into PBS / Protein released into PBS: Arion (slug)
Experimental: As test substance a β-blocking agent propranolo HCl (1% w/v) was used. Benzalkonium chloride (1% w/v) and Propranolol (1% w/v) were prepared in PBS (pH 7.4). The slugs were daily incubated during 15 min with the test solution during four days. After the incubation period the slugs were placed on 500 μL PBS in a petri dish. The PBS was sampled every hour and refreshed with 500 μL PBS for 3 hours after the treatment.
The enzymes (LDH, ALP) and the total protein released into the PBS were determined. The change in body weight and the mucus production caused by the treatment were examined.

CCN(CC)CC(=O)Nc1c(C)cccc1C [Lidocaine HCl, lidocaine HCl]
damage (in words) ([1]; 1% w/v, 15 min daily, five days): little or no damage
% MP, mucus production as % of the body weight at the start of the day before the treatment ([1]; day 1, 1% w/v in PBS, 15 min): 0%
% MP, mucus production as % of the body weight at the start of the day before the treatment ([1]; day 2, 1% w/v in PBS, 15 min): 0%
% MP, mucus production as % of the body weight at the start of the day before the treatment ([1]; day 3, 1% w/v in PBS, 15 min): 0%
% MP, mucus production as % of the body weight at the start of the day before the treatment ([1]; day 4, 1% w/v in PBS, 15 min): 0%
% MP, mucus production as % of the body weight at the start of the day before the treatment ([1]; day 5, 1% w/v in PBS, 15 min): 0%

CC(C)NCC(O)COc1cccc2ccccc12 (stereo not shown) [Propr, propranolol HCl]
% MP, mucus production as % of the body weight at the start of the day before the treatment ([2]; 1 day): 0.77%
ALP released into PBS ([2]; 1 day): 0.35 U/L
Protein released into PBS ([2]; 1 day): 4.89 μg/30 μL
% MP, mucus production as % of the body weight at the start of the day before the treatment ([2]; 2 day): 3.74%
ALP released into PBS ([2]; 2 day): 2.19 U/L
Protein released into PBS ([2]; 2 day): 31.61 μg/30 μL
% MP, mucus production as % of the body weight at the start of the day before the treatment ([2]; 3 day): 3.11%
ALP released into PBS ([2]; 3 day): 17.50 U/L
Protein released into PBS ([2]; 3 day): 31.36 μg/30 μL
% MP, mucus production as % of the body weight at the start of the day before the treatment ([2]; 4 day): 2.80%
ALP released into PBS ([2]; 4 day): 18.43 U/L
Protein released into PBS ([2]; 4 day): 20.88 μg/30 μL
colour of the mucus excreted by the slugs [2]: orange coloured
irritation (in words) [2]: considerable irritation
membrane damage (in words) [2]: severe membrane damage
survival of the slugs [2]: all the slugs were dead

CCCCN1CCCCC1C(=O)Nc1c(C)cccc1C (stereo not shown) [Bupivacaine HCl, bupivacaine HCl]
% MP, mucus production as % of the body weight at the start of the day before the treatment ([1]; Arion (slug), in vivo, 1 day): 7.24%
Total protein release into PBS ([1]; Arion (slug), in vivo, 1 day): 755 µg/mL
% MP, mucus production as % of the body weight at the start of the day before the treatment ([1]; Arion (slug), in vivo, 2 day): 5.22%
Total protein release into PBS ([1]; Arion (slug), in vivo, 2 day): 464 µg/mL
% MP, mucus production as % of the body weight at the start of the day before the treatment ([1]; Arion (slug), in vivo, 3 day): 2.74%
Total protein release into PBS ([1]; Arion (slug), in vivo, 3 day): 277 µg/mL
% MP, mucus production as % of the body weight at the start of the day before the treatment ([1]; Arion (slug), in vivo, 4 day): 1.64%
Total protein release into PBS ([1]; Arion (slug), in vivo, 4 day): 159 µg/mL
% MP, mucus production as % of the body weight at the start of the day before the treatment ([1]; Arion (slug), in vivo, 5 day): 1.34%
Total protein release into PBS ([1]; Arion (slug), in vivo, 5 day): 313 µg/mL
mucus production (in words) ([1]; in vivo): increased mucus production
protein release (in words) ([1]; in vivo): increased protein release
